Experimental data as given in PubChem BioAssay (NCI).
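Method: 48-hour compound exposure of cells in 96-well plates, five concentrations, linear interpolation of endpoints. Abbreviation: GI50, concentration required for 50% inhibition of growth. At the TGI there is no net growth.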

Tests used:
Test in all cases: DTP human tumour cell line panel, 48 h
ACHN renal = system: ACHN renal
CCRF-CEM leukemia = system: CCRF-CEM leukemia
HCC-2998 colon = system: HCC-2998 colon
HOP-92 NSCLC = system: HOP-92 NSCLC
LOX IMVI melanoma = system: LOX IMVI melanoma
NCI-H23 lung = system: NCI-H23 lung
NCI-H522 lung = system: NCI-H522 lung
OVCAR-8 ovarian = system: OVCAR-8 ovarian
SF-539 CNS = system: SF-539 CNS
SN12C renal = system: SN12C renal

## CC1=C(/C=C/C(C)=C\C=C\C(C)=C\C(=O)Nc2ccc3c(c2)OCO3)C(C)(C)CCC1
ACHN renal
  GI50: 89.1 µM
  TGI: > 100 µM
CCRF-CEM leukemia
  GI50: 22.6 µM
  TGI: > 100 µM
HCC-2998 colon
  GI50: 3.97 µM
  TGI: 36.5 µM
HOP-92 NSCLC
  GI50: 35.8 µM
  TGI: > 100 µM
LOX IMVI melanoma
  GI50: 16.8 µM
  TGI: > 100 µM
NCI-H23 lung
  GI50: 17.7 µM
  TGI: > 100 µM
NCI-H522 lung
  GI50: 14.1 µM
  TGI: > 100 µM
OVCAR-8 ovarian
  GI50: 93.1 µM
  TGI: > 100 µM
SF-539 CNS
  GI50: 51.3 µM
  TGI: > 100 µM
SN12C renal
  GI50: > 100 µM
  TGI: > 100 µM

## CC(=O)OC[C@H]1O[C@@H](n2ccc(=O)[nH]c2=O)[C@H](OC(C)=O)[C@@H]1OC(C)=O
ACHN renal
  GI50: > 100 µM
  TGI: > 100 µM
CCRF-CEM leukemia
  GI50: > 100 µM
  TGI: > 100 µM
HCC-2998 colon
  GI50: > 100 µM
  TGI: > 100 µM
HOP-92 NSCLC
  GI50: > 100 µM
  TGI: > 100 µM
LOX IMVI melanoma
  GI50: > 100 µM
  TGI: > 100 µM
NCI-H23 lung
  GI50: > 100 µM
  TGI: > 100 µM
NCI-H522 lung
  GI50: > 100 µM
  TGI: > 100 µM
OVCAR-8 ovarian
  GI50: > 100 µM
  TGI: > 100 µM
SF-539 CNS
  GI50: > 100 µM
  TGI: > 100 µM
SN12C renal
  GI50: > 100 µM
  TGI: > 100 µM

## CC1=C([Se]CC(OC(=O)CC[Se]c2ccccc2)C(=O)NCCCCCC(=O)OCc2ccccc2)C(=O)c2ccccc2C1=O (stereo not given)
ACHN renal
  GI50: 3.18 µM
  TGI: 13.8 µM
CCRF-CEM leukemia
  GI50: 3.61 µM
  TGI: > 100 µM
HCC-2998 colon
  GI50: 2.9 µM
  TGI: 7.46 µM
HOP-92 NSCLC
  GI50: 2.46 µM
  TGI: 5.91 µM
LOX IMVI melanoma
  GI50: 1.81 µM
  TGI: 4.28 µM
NCI-H23 lung
  GI50: 2 µM
  TGI: 5.53 µM
NCI-H522 lung
  GI50: 2.28 µM
  TGI: 6.16 µM
OVCAR-8 ovarian
  GI50: 2.44 µM
  TGI: 7.16 µM
SF-539 CNS
  GI50: 2.36 µM
  TGI: 6.03 µM
SN12C renal
  GI50: 3.25 µM
  TGI: 14.3 µM

## O=C1C(Cl)=C(Cl)C(=O)N1C1C2CC3CC(C2)CC1C3 (stereo not given)
ACHN renal
  TGI: > 100 µM
CCRF-CEM leukemia
  TGI: 64.7 µM
HCC-2998 colon
  TGI: > 100 µM
HOP-92 NSCLC
  TGI: > 100 µM
LOX IMVI melanoma
  TGI: > 100 µM
NCI-H23 lung
  TGI: > 100 µM
NCI-H522 lung
  TGI: > 64.5 µM
OVCAR-8 ovarian
  TGI: > 100 µM
SF-539 CNS
  TGI: > 100 µM
SN12C renal
  TGI: > 100 µM

## CCN(Cc1cccc(OC)c1)c1ccc(CO)c(Cl)c1
ACHN renal
  GI50: 26.5 µM
  TGI: 96.8 µM
CCRF-CEM leukemia
  GI50: 24.8 µM
  TGI: > 82.6 µM
HCC-2998 colon
  GI50: 12.5 µM
  TGI: 33.8 µM
HOP-92 NSCLC
  GI50: 2.11 µM
  TGI: 20.5 µM
LOX IMVI melanoma
  GI50: 14.5 µM
  TGI: 27.9 µM
NCI-H23 lung
  GI50: 13.6 µM
  TGI: 51 µM
NCI-H522 lung
  GI50: 9.51 µM
  TGI: 32.6 µM
OVCAR-8 ovarian
  GI50: 12.6 µM
  TGI: 45.7 µM
SF-539 CNS
  GI50: 19 µM
  TGI: 40.5 µM
SN12C renal
  GI50: 12.9 µM
  TGI: 32.1 µM

## CC(O)/C=C/C(CCC(C)CO)C(C)C (stereo not given)
ACHN renal
  TGI: > 100 µM
CCRF-CEM leukemia
  TGI: > 100 µM
HCC-2998 colon
  TGI: > 100 µM
HOP-92 NSCLC
  TGI: > 100 µM
LOX IMVI melanoma
  TGI: > 100 µM
NCI-H23 lung
  TGI: > 100 µM
NCI-H522 lung
  TGI: > 100 µM
OVCAR-8 ovarian
  TGI: > 100 µM
SF-539 CNS
  TGI: > 100 µM
SN12C renal
  TGI: > 100 µM

## COc1ccc(/C=C/C(=O)c2cc3c(N)c(C(=O)Nc4ccccc4Cl)sc3nc2C)cc1
ACHN renal
  GI50: 1.74 µM
  TGI: 10.8 µM
CCRF-CEM leukemia
  GI50: 10.4 µM
  TGI: > 50 µM
HCC-2998 colon
  GI50: 8 µM
  TGI: > 50 µM
HOP-92 NSCLC
  GI50: 0.689 µM
  TGI: 4.18 µM
LOX IMVI melanoma
  GI50: 8.11 µM
  TGI: > 50 µM
NCI-H23 lung
  GI50: 4.58 µM
  TGI: > 50 µM
NCI-H522 lung
  GI50: 0.365 µM
  TGI: > 50 µM
OVCAR-8 ovarian
  GI50: 2.04 µM
  TGI: 11 µM
SF-539 CNS
  GI50: 2.04 µM
  TGI: 9.45 µM
SN12C renal
  GI50: 3.78 µM
  TGI: > 50 µM

## CCCC[C@H]1C(=O)O[C@H](C)[C@H](NC(=O)c2cccc(NC=O)c2O)C(=O)O[C@@H](C)[C@@H]1OC(=O)CC(C)C
ACHN renal
  TGI: 36.1 µM
CCRF-CEM leukemia
  TGI: 6.29 µM
HCC-2998 colon
  TGI: 35.1 µM
HOP-92 NSCLC
  TGI: 29.9 µM
LOX IMVI melanoma
  TGI: 19 µM
NCI-H23 lung
  TGI: 31.2 µM
NCI-H522 lung
  TGI: 31.6 µM
OVCAR-8 ovarian
  TGI: 40.5 µM
SF-539 CNS
  TGI: 31.8 µM
SN12C renal
  TGI: 40.7 µM

## OCc1cn(Cc2cccc(Cl)c2)c2ccccc12
ACHN renal
  GI50: 5.63 µM
  TGI: 69.2 µM
CCRF-CEM leukemia
  GI50: 11 µM
  TGI: > 69.8 µM
HCC-2998 colon
  GI50: 12 µM
  TGI: 28.3 µM
HOP-92 NSCLC
  GI50: 1.55 µM
  TGI: 17.4 µM
LOX IMVI melanoma
  GI50: 6.71 µM
  TGI: 25.8 µM
NCI-H23 lung
  GI50: 13.3 µM
  TGI: 43.5 µM
NCI-H522 lung
  GI50: 5.95 µM
  TGI: 22.7 µM
OVCAR-8 ovarian
  GI50: 10.9 µM
  TGI: 66.9 µM
SF-539 CNS
  GI50: 13.5 µM
  TGI: 30.9 µM
SN12C renal
  GI50: 12 µM
  TGI: 42.6 µM

## COC(=O)C1=C(C)N(NC(N)=O)C2(N)N(NC(N)=O)C(C)=C(C(=O)OC)C12C(=O)OC (stereo not given)
ACHN renal
  TGI: > 100 µM
CCRF-CEM leukemia
  TGI: > 100 µM
HCC-2998 colon
  TGI: > 100 µM
HOP-92 NSCLC
  TGI: > 100 µM
LOX IMVI melanoma
  TGI: > 100 µM
NCI-H23 lung
  TGI: > 100 µM
NCI-H522 lung
  TGI: > 100 µM
OVCAR-8 ovarian
  TGI: > 100 µM
SF-539 CNS
  TGI: > 100 µM
SN12C renal
  TGI: > 100 µM

## O=C(O)CNc1c2ccccc2nc2ccccc12
ACHN renal
  TGI: > 100 µM
CCRF-CEM leukemia
  TGI: > 100 µM
HCC-2998 colon
  TGI: > 100 µM
HOP-92 NSCLC
  TGI: > 100 µM
LOX IMVI melanoma
  TGI: > 100 µM
NCI-H23 lung
  TGI: > 100 µM
NCI-H522 lung
  TGI: > 100 µM
OVCAR-8 ovarian
  TGI: > 100 µM
SF-539 CNS
  TGI: > 100 µM
SN12C renal
  TGI: > 100 µM

## C/C(O)=C(\N=O)C(=O)NCCc1ccccc1
ACHN renal
  TGI: > 100 µM
CCRF-CEM leukemia
  TGI: > 100 µM
HCC-2998 colon
  TGI: > 100 µM
HOP-92 NSCLC
  TGI: > 100 µM
LOX IMVI melanoma
  TGI: > 58 µM
NCI-H23 lung
  TGI: > 100 µM
NCI-H522 lung
  TGI: > 100 µM
OVCAR-8 ovarian
  TGI: > 100 µM
SF-539 CNS
  TGI: > 100 µM
SN12C renal
  TGI: > 100 µM

## Cc1ccc(C(CN(C)C)C(=O)c2ccccc2)cc1 (stereo not given)
ACHN renal
  GI50: 1.63 µM
  TGI: 3.18 µM
CCRF-CEM leukemia
  GI50: 0.442 µM
  TGI: 10.6 µM
HCC-2998 colon
  GI50: 6.62 µM
  TGI: 20.2 µM
HOP-92 NSCLC
  GI50: 2.07 µM
  TGI: 5.38 µM
LOX IMVI melanoma
  GI50: 1.01 µM
  TGI: 2.27 µM
NCI-H23 lung
  GI50: 10.5 µM
  TGI: 26.7 µM
NCI-H522 lung
  GI50: 1.8 µM
  TGI: 3.52 µM
OVCAR-8 ovarian
  GI50: 3.13 µM
  TGI: 11.3 µM
SF-539 CNS
  GI50: 3.09 µM
  TGI: 10.7 µM
SN12C renal
  GI50: 3.59 µM
  TGI: 11.5 µM

## Clc1ccc(Cl)c2[s+]snc12
ACHN renal
  TGI: > 100 µM
CCRF-CEM leukemia
  TGI: > 100 µM
HCC-2998 colon
  TGI: > 100 µM
HOP-92 NSCLC
  TGI: > 100 µM
LOX IMVI melanoma
  TGI: > 100 µM
NCI-H23 lung
  TGI: > 100 µM
NCI-H522 lung
  TGI: 44 µM
OVCAR-8 ovarian
  TGI: > 100 µM
SF-539 CNS
  TGI: > 100 µM
SN12C renal
  TGI: > 100 µM

## N#CC(C(=O)/C(=N/N)C(C#N)c1ccc(Cl)cc1)c1ccc(Cl)cc1 (stereo not given)
ACHN renal
  TGI: > 100 µM
CCRF-CEM leukemia
  TGI: > 100 µM
HCC-2998 colon
  TGI: > 100 µM
HOP-92 NSCLC
  TGI: > 100 µM
LOX IMVI melanoma
  TGI: > 100 µM
NCI-H23 lung
  TGI: > 100 µM
NCI-H522 lung
  TGI: > 100 µM
OVCAR-8 ovarian
  TGI: > 100 µM
SF-539 CNS
  TGI: > 100 µM
SN12C renal
  TGI: > 100 µM

## COC(=O)C1CC(C(=O)OC)c2nc3cc(C)ccc3nc21 (stereo not given)
ACHN renal
  TGI: > 100 µM
CCRF-CEM leukemia
  TGI: > 100 µM
HCC-2998 colon
  TGI: > 100 µM
HOP-92 NSCLC
  TGI: > 100 µM
LOX IMVI melanoma
  TGI: > 100 µM
NCI-H23 lung
  TGI: > 100 µM
NCI-H522 lung
  TGI: > 100 µM
OVCAR-8 ovarian
  TGI: > 100 µM
SF-539 CNS
  TGI: > 100 µM
SN12C renal
  TGI: > 100 µM
